According to patent US9303019B2, “Amino-pyrroline derivatives, and use thereof in the prevention and/or treatment of metabolic syndrome” (UNIVERSITE DE STRASBOURG, priority 2012, dated 2016):

Assays:
[1] = system: different receptors, transporters and enzymes; assay: Specific binding assay on different receptors, transporters and enzymes; settings: assayed at 10^−7 M and 10^−5 M
Experimental: Compound 1 was assayed at two concentrations 10^−7 (1.0E-07) M and […] (1.0E-05) on different receptors, transporters and enzymes using the techniques described in the literature and adapted for the laboratory.

[2] = system: 3T3-L1 adipocytes; assay: Secretion of adiponectin by differentiated 3T3-L1 adipocytes (ELISA); format: cell-based, murine; settings: 3 μmol/l, 6 h; control 212.6±19.1
Experimental: 3T3-L1 murine preadipocytes were cultured to confluence at 37° C. in DMEM medium containing 4.5 g/litre of D-glucose, 10% FCS and antibiotics. At confluence, differentiation of the 3T3-L1 adipocytes was initiated through the addition over 48 h of a mixture containing 100 μM methyl-isobutylxanthine, 100 nm dexamethasone and 175 nM insulin. The cells were then passaged every 2-3 days in DMEM, 10% FCS and 175 nM insulin. More than 95% of cells had the phenotype of mature adipocytes 10 days after confluence was reached.
To determine the secretion of adiponectin by mature adipocytes, differentiated 3T3-L1 adipocytes (10 days after confluence) were placed in culture in 12-well plates and washed three times with DMEM, then cultured for 6 h in DMEM alone, in the absence or presence of 3 μM of compound 1. In some wells the antagonist selective for the imidazoline receptors I1, efaroxan, was added (100 μM) 30 min before exposure to compound 1.
The culture medium was then recovered, centrifuged for 3 min at 10 000 g to remove cell contaminants, and the supernatant was stored at −80° C. until use. After two washings in cold PBS, the adipocytes were collected in PBS, homogenized and stored at −80° C. An aliquot of adipocyte homogenate was stored for protein determination. The adiponectin was measured using an ELISA kit following the manufacturer's recommendations. The adiponectin concentration was normalized with the cell protein content.

[3] = system: SHHF rats; assay: Chronic treatment: plasma biochemical parameters in SHHF rats; format: in vivo, rat; settings: 20 mg/kg/d, 12 weeks
Experimental: Male SHHF rats (spontaneously hypertensive, heart failure) aged 12 weeks were used for this study (Charles River breeding centre, L'Arbresle, France).
Compound 1 was administered in the drinking water for 12 weeks at a dose of 20 mg/kg/d (n=17). Water consumption was regularly measured to adjust the concentration of compound 1. Non-treated control SHHF rats had access to normal water (n=10).
Body weight, water and food intake were measured every day. After a treatment time of 12 weeks, blood samples were taken. Three days later, arterial pressure and heart rate were recorded and a glucose tolerance test was performed.
After a treatment time of 12 weeks, blood samples were obtained from the caudal vein of anesthetized rats (2.5% isoflurane, Abbott, Rungis, France) after a fasting time of 18 h.
The blood were centrifuged for 15 minutes at 2000 g and the plasma was frozen to −80° C. until assays of glucose, total cholesterol, HDL and LDL cholesterol and fatty acids. These assays were performed at the following centre: Plateau Technique Biologique des Hôpitaux Universitaires de Strasbourg (Advia 2400, Bayer HealthCare).
Insulin, leptin, adiponectin and glucagon were assayed using ELISA kits (insulin: Mercodia, Uppsala, Sweden; leptin: Yanaihara Institute Inc., Shizuoka, Japan; adiponectin: B-Bridge International, Mountain View, USA; glucagon: Gentaur, Kampenhout, Belgium) following the supplier's recommendations.

[4] = target: I1 receptor (Rattus norvegicus, UniProt Q4G017); assay: Competitive binding to [125I]-PIC in membranes of PC12 cells; settings: PC12 cell membranes
Experimental: The PC-12 cells were cultured in 75-cm^2 dishes in DMEM medium (1000 mg/l glucose) supplemented with 10% FBS inactivated by treatment at 56° C., 100 U/ml penicillin and 100 μg/ml streptomycin. When the cells reached confluence (3 to 4 days after the start of culture) they were harvested and passaged via the action of 0.25% trypsin for 2 minutes at 37° C. For the specific binding assays, the medium was removed and the cells stored by freezing to −20° C. until use with the membrane preparation.
The frozen PC12 cells were recovered by scraping in ice-cold Tris-HEPES buffer (5 mM Tris-HEPES, pH 7.7, 0.5 mM EDTA, 0.5 mM EGTA and 0.5 mM MgCl2) and Potter homogenized. After centrifuging at 75,000 g for 20 min, the residue was washed in ice-cold Tris-HEPES buffer then again centrifuged. This last operation was performed twice. […]
The reaction was halted by rapid vacuum filtration through GF/B fibre glass filters treated with 0.3% PEI using filtering equipment of Brandel® type, followed by three rapid washings of the filters using 3 ml of ice-cold 50 mM Tris-HCl buffer, pH 7.4. The radioactivity retained on the dried filters was determined using a Minaxi gamma counter (Packard, Meriden, CT, USA). Non-specific binding was determined by [^125I]PIC binding in the presence of 10 μM PIC and represented about 43% of total radioactivity.

I1 receptor, sequence (Q4G017 whole entry, looked up): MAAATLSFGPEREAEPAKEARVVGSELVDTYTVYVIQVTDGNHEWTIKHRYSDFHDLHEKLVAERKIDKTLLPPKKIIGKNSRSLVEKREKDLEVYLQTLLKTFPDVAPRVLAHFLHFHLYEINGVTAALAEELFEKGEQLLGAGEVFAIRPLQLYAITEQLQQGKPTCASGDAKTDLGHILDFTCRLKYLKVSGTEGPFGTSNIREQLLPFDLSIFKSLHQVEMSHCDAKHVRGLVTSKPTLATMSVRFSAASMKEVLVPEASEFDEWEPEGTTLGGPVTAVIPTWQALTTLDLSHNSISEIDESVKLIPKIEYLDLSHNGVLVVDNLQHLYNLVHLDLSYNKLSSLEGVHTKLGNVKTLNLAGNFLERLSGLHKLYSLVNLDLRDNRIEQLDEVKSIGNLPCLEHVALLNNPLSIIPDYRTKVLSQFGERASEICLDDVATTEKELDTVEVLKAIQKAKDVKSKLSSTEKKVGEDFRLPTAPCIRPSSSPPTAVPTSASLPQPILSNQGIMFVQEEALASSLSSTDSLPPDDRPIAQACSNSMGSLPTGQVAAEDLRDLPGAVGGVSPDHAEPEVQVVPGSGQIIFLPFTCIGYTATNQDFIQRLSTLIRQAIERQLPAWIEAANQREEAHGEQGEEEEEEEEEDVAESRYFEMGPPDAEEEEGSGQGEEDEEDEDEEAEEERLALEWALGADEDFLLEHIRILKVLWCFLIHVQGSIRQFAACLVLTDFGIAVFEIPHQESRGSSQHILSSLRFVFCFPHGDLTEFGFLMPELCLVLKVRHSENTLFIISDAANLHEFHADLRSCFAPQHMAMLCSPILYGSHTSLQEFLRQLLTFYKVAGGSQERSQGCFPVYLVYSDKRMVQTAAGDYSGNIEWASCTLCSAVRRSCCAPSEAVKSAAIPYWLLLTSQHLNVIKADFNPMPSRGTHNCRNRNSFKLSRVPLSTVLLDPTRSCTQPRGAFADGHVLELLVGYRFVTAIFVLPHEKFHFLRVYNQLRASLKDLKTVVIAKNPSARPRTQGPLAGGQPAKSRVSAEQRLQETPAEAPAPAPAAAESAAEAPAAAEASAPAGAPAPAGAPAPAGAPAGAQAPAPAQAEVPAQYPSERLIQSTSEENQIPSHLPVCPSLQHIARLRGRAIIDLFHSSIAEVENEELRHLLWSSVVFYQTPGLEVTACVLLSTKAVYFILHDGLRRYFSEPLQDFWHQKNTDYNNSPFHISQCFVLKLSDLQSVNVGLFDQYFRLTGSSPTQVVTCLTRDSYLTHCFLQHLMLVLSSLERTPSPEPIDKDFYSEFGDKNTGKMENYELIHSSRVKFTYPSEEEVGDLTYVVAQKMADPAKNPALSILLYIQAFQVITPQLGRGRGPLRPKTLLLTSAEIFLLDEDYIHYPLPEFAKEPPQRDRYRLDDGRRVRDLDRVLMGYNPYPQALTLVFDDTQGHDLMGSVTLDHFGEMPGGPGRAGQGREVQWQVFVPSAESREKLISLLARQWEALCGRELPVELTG

Cc1c(Cl)cccc1NC1=NCC(C)C1.Cl (centres unmarked) [Compound 1, (3-Chloro-2-methyl-phenyl)-(4-methyl-4,5-dihydro-3H-pyrrol-2-yl)-amine hydrochloride]
affinity for more than 50 receptors, transporters and enzymes ([1]; hydrochloride): does not exhibit any affinity similar to the affinity for the imidazoline receptor I1 | affinity for more than 50 receptors, transporters and enzymes ([1]; listed as compound 1, hydrochloride): does not bind to any of the assayed receptors, transporters and enzymes with affinity similar | secretion of adiponectin [2]: 378±38 ng/ml/mg of proteins | fasting glycaemia [3]: not affected | free fatty acids [3]: not affected | total plasma cholesterol ([3]; fasting 18 h, control 3.8±0.18): 2.7 ± 0.09 mmol/L | plasma triglycerides ([3]; fasting 18 h, control 4.59±0.23): 3.8 ± 0.25 mmol/L | plasma adiponectin ([3]; control 5.54±0.14): 10.6 ± 0.52 µg/mL | fasting plasma insulin ([3]; control 46.8±3.7): 15.2 ± 2 ng/mL | HOMA-IR index ([3]; control 534±38): 110±14 | share of sites with high affinity [4]: 55%
